The values that follow come from US20220143231A1, “MACROCYCLIC COMPOUNDS AND METHODS OF USE THEREOF” (Janssen Biotech, Inc., priority 2020, published 2022).

Each structure is given as a SMILES string.

The data set in a line: Chelation test with La^3+ by HPLC. It is filed as physicochemical. The settings on record: FIGS. 1A-1B.

In the case of `CC(C)CCC(c1cccc(C(=O)O)n1)N1CCOCCOCCN(Cc2cccc(C(=O)O)n2)CCOCCOCC1` (centres unmarked) [TOPA-[C7]-isopentyl, 6-((16-(1-(6-carboxypyridin-2-yl)-4-methylpentyl)-1,4,10,13-tetraoxa-7,16-diazacyclooctadecan-7-yl)methyl)picolinic acid], the “chelation of La^3+ (shift in HPLC retention time after mixing)” value is “rapid chelation”. The result for `O=C(O)c1cccc(CN2CCOCCOCCN(C(c3ccccc3)c3cccc(C(=O)O)n3)CCOCCOCC2)n1` (centres unmarked) [TOPA-[C7]-phenyl, 6-((16-((6-carboxypyridin-2-yl)(phenyl)methyl)-1,4,10,13-tetraoxa-7,16-diazacyclooctadecan-7-yl)methyl)picolinic acid] reads “rapid chelation”.
